Patent publication US5180742A, “Quinone derivatives, their production and use” (Takeda Chemical Industries, Ltd., priority 1984, dated 1993)

Columns and labels:
[1] = test system: Immunoglobulin-G1 mediated bronchoconstriction reaction; experiment: Action on immunoglobulin-G1 mediated bronchoconstriction reaction in guinea pigs; format: in vivo, Hartley guinea pigs; details: Cavia porcellus; 20 mg/kg oral, 1 hour before antigen
Protocol: Action on the Immunoglobulin-G1 Mediated Bronchoconstriction Reaction in Guinea Pigs
In accordance with the method of Orange and Moore (Orange, R. P. and Moore E. G. , J. Immunol., 116, 392-397, 1976), female and male Hartley guinea pigs weighing about 350 g were sensitized by intraperitoneal application of an emulsion (1 ml) composed of egg albumin (1 mg) and Freund's complete adjuvant (produced by Wako Pure-Chemical Industries, Ltd. of Japan). 3 Weeks after the sensitization, a serum antibody level in the sensitized guinea pigs was measured by means of the 3-hours passive cutaneous anaphylaxis (PCA) reaction in guinea pigs. […] The broncoconstriction reaction resulting from the antigen-antibody reaction was measured in accordance with the Konzett-Rossler method (Konzett, H. and Rossler, R., Naunyn-Schmiedeberg'ss Arch. exp. Path. pharmak., 195, 71-74, 1940). The guinea pigs were fixed on the dorsal position under anesthesia with a urethane (1.5 g/kg given intraperitonealy). An incision was made through the trachea, which was connected to an artificial respirator (manufactured by Harvard Co.) through an endotracheal tube, with a side tube of the endotracheal tube being attached to a brochoconstricting transducer (type 7020, manufactured by Ugobasile Co.). While an air volume per ventilation was adjusted to 5 to 7 ml and an air ventilation rate was controlled at 70 times/min., with a load pressure to the lung set at 10 cm H2 O, the overflown air volume was recorded on Rectigraphy-8S (manufactured by Sanei Sokki Inc. of Japan) through a transducer. After 1 mg/kg of gallamine triethiodide was given intravenously to the animals, 1 mg/kg of antigen, egg albumin dissolved in physiological saline, was applied intravenously to induce a brochoconstriction reaction. The bronchconstriction reaction was recorded for the period of time of 15 minutes. A drug was suspended in 5% gum arabic solution, and given orally 1 hour before the application of the antigen. Percent inhibition of the immunoglobuin G1 mediated bronchoconstriction reaction in guinea pigs are shown below in Table 3.

[2] = test system: ischemic convulsive seizure due to bilateral common carotid artery ligation in SHR rats; experiment: Inhibitory action on induction of convulsive seizure in experimental cerebral infarction model of SHR rats; format: in vivo, spontaneously hypertensive rats; details: control 151 ± 5
Protocol: Inhibitory Action on Induction of Convulsive Seizure in an Experimental Cerebral Infarction Model of Spontaneously Hypertensive Rats
Cerebral ischemia was induced by simultaneous ligation of bilateral common carotid arteries in male spontaneously hypertensive (SHR) rats (about 22 weeks of age) under light pentobarbital anesthesia. Thereafter, over about 4 hours, the behaviour was observed under conscious state.
Test drugs were orally administered as a gum arabic suspension 1 hour before the ligation of bilateral common carotid arteries under an unanesthetized condition.

[3] = test system: PAF-induced bronchoconstriction; experiment: Effect on PAF-induced bronchoconstriction in guinea pigs; format: in vivo; details: one hour before PAF
Protocol: Platelet Activating Factor (PAF)-Induced Bronchoconstriction in Guinea Pigs
Experimental procedure in this experiment was the same as that in LTD4 -induced bronchoconstriction shown in Experimental example 7. PAF is an intraveneous dose of 1 μg/kg was used. Each specimen suspended in a 5% gum arabic solution was given orally one hour before the PAF administration.

[4] = test system: Fe^3+ -NTA-induced injury of rat kidney; experiment: Inhibitory effect on Fe3+-NTA-induced injury of rat kidney; format: in vivo, Wistar rats; details: 20 mg/kg oral once a day; for body weight gain: control 9.8 ± 5.4, normal 68.3 ± 2.3; for Urinary volume: control 20, normal 6.8; for Urinary protein: control 25.1, normal 5.1
Protocol: Ferric Nitrilotriacetate (Fe^3+ -NTA)-Induced Injury of Rat Kidney
Male Wistar rats of 4 weeks old weighing about 80 g were used. Injury of kidney was induced by the method of Awai et al. [Amer. J. Pathol., 95, 663-674 (1979)]. The mixture of ferric nitrate and NTA as a ratio of 1:4 was intraperitoneally given: iron of 5 mg/kg for 3 days followed 10 mg/kg for 9 days. Twelve days later, the animals were killed. Body weight gain, urinary volume, urinary protein and wet and dry weights of kidney were measured. Drugs were suspended in a 5% gum arabic solution and given orally once a day in a dose of 20 mg/kg.

[5] = test system: SRS-A generation in rats pleural exudate; experiment: Effects on SRS-A generation in pleural exudate in rat reversed passive Arthus pleurisy; format: in vivo
Protocol: Effects on Increased Vascular Permeability and Slow Reacting Substance of Anaphylaxis (SRS-A) Generation in Rat Reversed Passive Arthus Pleurisy
The rat reversed passive Arthus pleurisy was induced by the method of Yamamoto et al. Agents Actions, 5, 374-377 (1975)]. Rats were given 1 ml of saline containing 5 mg of egg albumin intravenously followed 0.2 ml of rabbit anti-agg albumin antiserum injected into the pleural cavity. Just after that, 0.5 ml of saline contained 1% Evans blue was administered intravenously to the rats. 30 Minutes later, the animals were killed by bleeding, and the pleural cavity was rinsed with 2 ml of saline. The concentrations of the dye in the pleural exudate and the peripheral blood were measured to calculate the volume of serum infiltrated into the pleural cavity. The vascular permeability (dye concentration in pleural cavity/dye concentration in peripheral blood) was expressed as μl serum/30 min. On the other hand, the amount of SRS-A generated in the pleural cavity was determined by the following procedures. 30 Minutes after induction of the pleurisy, the aminals were killed by bleeding and the pleural cavity was rinsed with 2 ml of saline. 9 Milliliter of cold absolute ethanol were immediately added to the rinsed solution. The mixture was allowed to stand at 4° C. for 30 min. After the mixture was centrifuged at 3000 r.p.m. for 10 min, the supernatant was concentrated by evaporation. The resulting residue was dissolved in 0.5 ml of saline. The amount of SRS-A generated was bioassayed using guinea pig ileum.

[6] = test system: PMA-stimulated release of O2^- in guinea pig peritoneal polymorphonuclear leukocytes; experiment: PMA-stimulated release of O2- in guinea pig peritoneal polymorphonuclear leukocytes (chemiluminescence); format: cell-based
Protocol: Luminol (3-aminophthaloylhydrazine), 10 nmole, and phorbol myristate acetate (PMA), 10 ng, were added to guinea pig peritoneal polymorphonuclear leukocytes (1.5×10^4 cells) suspended in Hanks' balanced salt solution-HEPES buffer (pH 7.4). A total volume of the reaction mixture was 0.1 ml. The chemiluminescence resulted from release of superoxide (O2^-) during 30 sec was measured continuously for 10 min at 37° C. using a chemiluminometer analyzer (Packard Pico-Lite). A peak value of the chemiluminescence was compared as an index of the release of O2^-, and the chemiluminecence inhibitable by superoxide dismutase (300 μg/ml) was measured as 100%. Compound No. 50 was added immediately before the addition of PMA.

Structure (SMILES)	inhibition in vivo at 20 mg/kg [1] [%]	Time to appearance of convulsive seizure ([2]; 3 mg/kg oral) [min]	Time to appearance of convulsive seizure ([2]; 10 mg/kg oral) [min]	% Inhibition of PAF-induced bronchoconstriction ([3]; 0.313 mg/kg oral) [%]	% Inhibition of PAF-induced bronchoconstriction ([3]; 1.25 mg/kg oral) [%]	% Inhibition of PAF-induced bronchoconstriction ([3]; 5 mg/kg oral) [%]	Urinary protein (% inhibition) [4] [%]	Urinary volume (% Inhibition) [4] [%]	Water content in kidney (% Inhibition) [4] [%]	body weight gain [4] [g]	Urinary volume [4] [mL/day]	Urinary protein [4] [mg/day]	% Inhibition of SRS-A generation in pleural exudate ([5]; 0.1 mg/rat) [%]	% Inhibition of SRS-A generation in pleural exudate ([5]; 1 mg/rat) [%]	suppression of the release of O2- (in words) ([6]; 0.001-0.1 mM)	inhibition at 1 µM ([6]; Cavia porcellus, Leukocyte, 0.001 mM) [%]	inhibition at 10 µM ([6]; Cavia porcellus, Leukocyte, 0.01 mM) [%]	inhibition at 100 µM ([6]; Cavia porcellus, Leukocyte, 0.1 mM) [%]	% Inhibition of PAF-induced bronchoconstriction ([3]; 0.08 mg/kg oral) [%]
CC1=C(C)C(=O)C(C(CCCCCC(=O)O)c2ccccc2)=C(C)C1=O (stereo not drawn) [Compound No. 50, 7-(3,5,6-trimethyl-1,4-benzoquinon-2-yl)-7-phenylheptanoic acid]	76	204 ± 7	220 ± 9	66	94	85	88	88	81	39.3 ± 7.4	8.4	7.5	49	77	suppressed the release of O2^- in a concentration-dependent manner	12	56	93	–
CC1=C(C)C(=O)C(C(CCCCCC(=O)O)c2ccc(C)cc2)=C(C)C1=O (stereo not drawn) [Compound No. 93]	83	–	–	87	70	–	10	47	7	26.2 ± 4.9	13.6	23.1	-6	56	–	–	–	–	58
